# Measurements reported in US7704490B2 (Institut Pasteur, priority 1998, dated 2010).
# Entries after “also recorded” stand apart in the source; their conditions may differ. No end group written: not given here.
# Assays:
# TS1β cells = assay: TS1β proliferation assay, activity of peptides and IL-2 muteins; type: cell-based, murine; conditions: for proliferation of TS1β induced by the peptide: in the absence of IL-2
# Experimental: Background of 1.4×10^3 cpm was subtracted. […] TS1β target cells are derived from TS1 murine cells (which only express murine IL-2Rγ), after transfection with the human IL-2Rβ gene.
# The response to. IL-2 or peptide alone was substracted from that obtained from both IL-2 and peptide.
# The biological activity of IL2 mutant Asp 20→Lys (□) is shown for comparison
# TS1β cells were cultured (10^4 cells/well) in 96 wells in flat-bottomed microtiter plates with a final volume of 0.2 ml. […] In order to test the inhibitory effect of mAbs, different concentrations of these reagents were mixed in the culture wells with the respective lymphokines for 30 min at low temperature before adding the cells. […] Cultures were pulsed with 0.5 μCi/well of (3H) TdR after 36 h of incubation and harvested 15 h later.
# TS1 cells = assay: IP130 proliferation of TS1 cells with or without human IL-2Rβ; type: cell-based, murine; conditions: with or without transfection by human IL-2Rβ gene
# NK cells = assay: Cell cycle entry (S+G2/M) of NK cells in stimulated PBMC; type: cell-based, human
# Experimental: Non-specific responses (J+1 in medium) are subtracted. NK cells entry into S+G2/M phases are measured by propidium iodide and analyzed with the ModFit 2.0 software (Becton Dickinson).
# [1] = system: classical murine cell lines (C30-1, CTLL, HT-2, . . . ); assay: IP130 effects on classical murine IL-2 assay cell lines; type: cell-based; conditions: cells without human IL-2Rβ
# Description: IP130 acts only on cell lines expressing human IL-2Rβ. […] Furthermore anti-human IL-2Rβ blocking mAb neutralizes the effects of IP130.
# Kit 225 cell line = assay: Protein phosphorylation and c-myc induction in Kit 225 cell line; type: cell-based, human
# Description: IP130 induces SHC protein phosphorylation. […] Kinetics of Shc phosphorylation is shown on the left. A Western blot of Shc protein is shown on the right.
# Alone the peptide induces the phosphorylation of proteins on Kit 225 cell line. […] STAT-3 and STAT-5 are not activated after IP130 stimulation since IL-2Rγ is not involved in IP130 interaction with Kit 225.
# STAT = assay: Electrophoretic mobility shift assay of STAT activation in KIT225 nuclear extracts; type: cell-based, human; conditions: STAT-3 and STAT-5; β-casein, GAS and GIRE probes
# IFN-γ production = assay: IFN-γ production; type: cell-based
# [2] = Circular dichroism, α helix content; type: physicochemical; conditions: for α-helix content: isolated peptide, circular dichroism
# [3] = Sedimentation-diffusion equilibrium, quaternary structure; type: physicochemical; conditions: concentration above 5×10^−6M
# Description: The quaternary structure of peptide IP130 was also studied by sedimentation-diffusion equilibrium.
# mAb 19B11 = assay: ELISA inhibition of mAb 19B11 binding to IL-2 coated plates; parameters: species or system mouse; conditions: control mAb
# mAb H2-8 = assay: ELISA inhibition of mAb H2-8 binding to IL-2 coated plates; parameters: species or system mouse; conditions: mAb at about 50% of maximum binding, preincubated with inhibitor
# Experimental: Control is represented by non coated plates.
# H2-8 was preincubated with different peptides including five decapeptides (1-10, 5-15, 10-20, 15-25, 20-30).
# [4] = system: K562 or Daudi target cells; assay: Induction of LAK cells, 51Cr release lysis; type: cell-based, human; conditions: for induction of LAK cells: PBMCs stimulated 3 or 6 days, lysis of K562 and Daudi targets
# Experimental: K562 or Daudi target cells (5×103 in 0.1 ml) labeled with Na2^51CrO4 (Amersham Pharmacia Biotech) were mixed in round-bottomed microwells with an equal volume of effector cells at various E/T ratios. After 4 hours of incubation at 37° C., the plates were centrifuged at 2,000 g for 2 min, and cell-free supernatant were collected using a Luma Plate 96 cell harvester (Lulac-LSC). Supernatant radioactivity was assayed using an automated MicroBeta 1450 trilux γ-counter (Wallac). Spontaneous release was determined by incubating target cells in medium alone. Maximum release was determined by adding 0.1 ml of 1M HCl to the target cell suspension. The percentage of specific lysis was calculated as follows: 100×(experimental ^51Cr release−spontaneous release)/(maximum ^51Cr release−spontaneous ^51Cr release).
# IL-2Rβ = molecular target: T1, IL-2Rβ (Homo sapiens, UniProt P14784); conditions: cited from earlier work
# T1 sequence (P14784 27-551): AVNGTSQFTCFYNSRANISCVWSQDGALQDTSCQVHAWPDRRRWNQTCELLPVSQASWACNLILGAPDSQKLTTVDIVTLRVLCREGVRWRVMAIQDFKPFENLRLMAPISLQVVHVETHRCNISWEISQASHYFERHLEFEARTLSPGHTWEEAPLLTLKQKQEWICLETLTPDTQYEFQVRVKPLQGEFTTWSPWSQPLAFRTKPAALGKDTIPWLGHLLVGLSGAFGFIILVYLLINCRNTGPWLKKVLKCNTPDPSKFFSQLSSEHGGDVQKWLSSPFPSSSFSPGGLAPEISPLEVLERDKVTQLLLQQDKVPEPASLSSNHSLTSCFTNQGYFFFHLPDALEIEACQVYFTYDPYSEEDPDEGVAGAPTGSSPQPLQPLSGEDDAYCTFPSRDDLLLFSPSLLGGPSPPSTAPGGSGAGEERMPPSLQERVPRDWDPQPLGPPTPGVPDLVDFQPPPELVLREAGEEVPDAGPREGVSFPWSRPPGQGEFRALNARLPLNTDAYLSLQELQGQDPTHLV
# IL-2R = assay: Affinity of IL-2 mutant for IL-2R; type: binding; conditions: compared with IL-2
substance,measurement,setting,value
APTSSSTKKTQLQLEHLLLDLQMILNGINN [IP130],IC-50 of proliferation and of synergy with IL-2,TS1β cells; both activities at comparable concentrations,IC-50≅μM
same,proliferation of TS1β induced by the peptide,TS1β cells,stimulates the proliferation
same,synergy with IL-2 on TS1β proliferation,TS1β cells; in the presence of IL-2,strong synergy
same,proliferation of TS1 cells in the presence of IP130,TS1 cells,TS1 cells only proliferate after transfection by the human IL-2Rβ gene
same,entry of NK cells into the cell cycle,NK cells,induces NK cells to enter into the cell cycle
same,sensitivity of classical murine cell lines to the peptide,[1],insensitive
same,c-myc induction,Kit 225 cell line,observed
same,phosphorylation of IL-2Rβ,"Kit 225 cell line; immunoprecipitation, blotting with mAb 4G10 (anti-Ptyr)",phosphorylated IL-2Rβ is identified
same,phosphorylation of Shc,Kit 225 cell line; peptide alone,the kinase Shc is easily recognized; also recorded: phosphorylated after a ten minute stimulation
same,STAT activation,STAT,not activated; also recorded: does not induce STAT activity
same,induction of IFN-γ production,IFN-γ production,ability to induce LAK cells and IFNγ production
same,residues in an α helix configuration,"[2]; 20° C., phosphate buffer (20 mM, pH 7.2)",50%
same,α-helix content,[2],50%±7%
same,quaternary structure,[3],most of the molecules are in a tetrameric form
same,inhibition of the binding of mAb 19B11 to IL-2,mAb 19B11,inhibited
same,inhibition of the binding of mAb H2-8 to IL-2,mAb H2-8,most efficient inhibitor
same,induction of LAK cells,[4],able to induce LAK cells in a concentration dependent manner; also recorded: potent LAK cell response
same,"LAK response compared with IL-2, day 3",[4]; day 3,weaker than that of IL-2
same,"LAK response compared with IL-2, day 6",[4]; day 6,comparable
IL2 Asp 20→Lys mutant: IL-2 with substitution Asp20 by Lys [reference compound],biological activity on Ts1β cells,"TS1β cells; 5×10-3 to 10 nM, compared with IL-2 (FIG. 18)",clearly reduced
same,binding to IL-2Rβ,IL-2Rβ,prevents binding to IL-2Rβ
IL-2 Pro125: IL-2 mutant IL-2 Pro125 (Cys→Pro) [reference compound],maximum proliferation of TS1β,TS1β cells; higher concentrations of mutant,without affecting the maximum proliferation
same,affinity for IL-2R,IL-2R,slightly reduces the affinity
"IP131 Asp 20→Lys: Peptide 1-31 mutated at position 20 (Asp→Lys), SEQ ID NO:8 (APTSSSTKKTQLQLEHLLLKLQMILNGINNY)",proliferation of TS1β induced by the peptide,TS1β cells,maintains its inductive capacity on proliferation
same,induction of IFN-γ production,IFN-γ production,induce IFN-γ production
same,induction of LAK cells,[4],capacity to generate LAK cells
"peptide 1-10: synthetic IL-2 decapeptide, residues 1-10 (APTSSSTKKT-NH2; UniProt P60568 21-30, looked up, fragment)",inhibition of the binding of mAb 19B11 to IL-2,mAb 19B11,inhibited
"peptide 1-22: synthetic IL-2 peptide, residues 1-22 (APTSSSTKKTQLQLEHLLLDLQ; UniProt P60568 21-42, looked up, fragment)",α-helix content,[2],13%±5%
same,inhibition of the binding of mAb 19B11 to IL-2,mAb 19B11,inhibited
